Where “and” joins values, the source holds several entries; their conditions need not be identical. Equal entries are not always repeated. Entries after “also recorded” stand apart in the source; their conditions may differ. Marks after values point to notes of the source that are not given here.
What was measured:
[1] = Paclitaxel dissolution study, methanol/water 50/50, USP Apparatus II; type: physicochemical; details: methanol/water 50/50 (v/v), 37° C., pH 7, USP Apparatus II 75 rpm
Procedure: Beads were transferred to a stainless steel mesh container and placed in the dissolution bath containing methanol/water 50/50 (v/v) media at 37° C., pH 7, and a USP Apparatus II (Paddle), operating at 75 rpm. […] Absorbance values of the samples were compared to those of standard solutions prepared in dissolution media to determine the amount of material dissolved. […] Absorbance values of the samples were compared to those of standard solutions prepared in dissolution media to determine the amount of material dissolved.
Beads were transferred to a stainless steel mesh container and placed in the dissolution bath containing methanol/water 50/50 (v/v) media at 37° C., pH 7, and a USP Apparatus II (Paddle), operating at 75 rpm. […] Absorbance values of the samples were compared to those of standard solutions prepared in dissolution media to determine the amount of material dissolved.

[2] = BET specific surface area analysis; type: physicochemical
Procedure: As used herein, the “specific surface area” (SSA) is the total surface area of the taxane particle per unit of taxane mass as measured by the Brunauer-Emmett-Teller (“BET”) isotherm by the following method: a known mass between 200 and 300 mg of the analyte is added to a 30 mL sample tube. […] The automated test is then carried out using the BETWIN® software package and the surface area of each sample is subsequently calculated. As will be understood by those of skill in the art, the “taxane particles” can include both agglomerated taxane particles and non-agglomerated taxane particles; since the SSA is determined on a per gram basis it takes into account both the larger agglomerated and smaller non-agglomerated taxane particles in the composition. The agglomerated taxane particles are defined herein as individual taxane particles that are formed by the agglomeration of smaller particles which fuse together forming the larger individual taxane particles, all of which occurs during the processing of the taxane particles. […]
A known mass between 200 and 300 mg of the analyte was added to a 30 mL sample tube. […] The automated test was then carried out using the BETWIN® software package and the surface area of each sample was subsequently calculated.

[3] = Particle size analysis (light obscuration / laser diffraction); type: physicochemical
Procedure: Particle size was analyzed by both light obscuration and laser diffraction methods. An Particle Sizing Systems AccuSizer 780 SIS system was used for the light obscuration method and Shimadzu SALD-7101 was used for the laser diffraction method.
The vials were vortexed for approximately 10 seconds and then sonicated in a sonic bath approximately 1 minute.
The vial was vortexed for approximately 10 seconds and then sonicated in a sonic bath for approximately 2 minutes. This suspension was used for laser diffraction analysis. Unused suspension was poured into a 125 mL particle-free plastic bottle, which was then filled to approximately 100 mL with filtered dispersant. The suspension was vortex for approximately 10 seconds and then sonicated in the sonic bath for approximately 2 minutes. This diluted suspension was used for light obscuration analysis.
A background test was first performed prior to analyzing particles on the AccuSizer 780 SIS. A new particle-free plastic bottle was filled with blank suspension solution by pumping from a reservoir, using a peristaltic pump, through a 0.22 μm Millipore filter and into the bottle. A background analysis was run to ensure the particle/mL count was below 100 particles/mL. […] Once the analysis was completed, the background data was removed and any measurement with less than four counts was removed. […]

[4] = test system: UM-UC-3 bladder cancer cell line (ATCC-CRL-1749) tumors; assay: Human bladder cancer (UM-UC-3) mouse xenograft study, tumor volume; type: in vivo
Procedure: (§1) Tumor volume was determined with calipers. […] Animals were weighed 2×/week.
At day 18 after tumor implant, when average tumor size was between 50-325 mm^3, animals were sorted into five groups with equal average tumor sizes and were treated as shown in Table 8 below.
The second treatments (2nd cycle) occurred 7 days following first treatment (1st cycle) and third treatments (3rd cycle) occurred 14 days following the first treatment. The docetaxel solution IV was administered via the tail vein.
Vehicle (Control): Diluted 1 ml of the 1% Polysorbate 80/8% Ethanol in normal saline (0.9% Sodium Chloride for Injection) reconstitution solution with 1.5 mL of normal saline (0.9% Sodium Chloride for Injection, USP). […] Vigorously hand shook the vial with inversions for 1 minute. […] Allowed the suspension to sit undisturbed for at least 5 minutes to reduce entrapped air and foam. […] Vortexed to mix.
Tumor volumes were determined 2×/week for the duration of the study (61 days).

[5] = IV docetaxel 3 cycles, of 7 tumors measured, day of death or euthanasia
[6] = test system: UM-UC-3 bladder cancer cell line (ATCC-CRL-1749) tumors; assay: UM-UC-3 xenograft study, H&E histology and immunohistochemistry of tumor site tissue; type: in vivo, mouse
[7] = mouse, in vivo, iv
Procedure: as §1

[8] = not told, pH 4
Procedure: Receptor Fluid: The receptor fluid consisted of 60 vol %/40 vol % methanol/water at pH 4 with 0.01 wt % NaN3 (added as a preservative). […] After mixing and degassing the Receptor Fluid it was filtered through a ZapCap CR 0.2 μm membrane under vacuum; the Receptor Fluid, so filtered, was stirred for an additional 20 minutes under vacuum.

[9] = Docetaxel dissolution study, methanol/water 15/85, USP Apparatus II; type: physicochemical; details: methanol/water 15/85 (v/v), 37° C., pH 7, USP Apparatus II 75 rpm
Procedure: The procedures used to determine the dissolution rates are as follows. […] Beads were transferred to a stainless steel mesh container and placed in the dissolution bath containing methanol/water 50/50 (v/v) media at 37° C., pH 7, and a USP Apparatus II (Paddle), operating at 75 rpm. At 10, 20, 30, 60, and 90 minutes, a 5 mL aliquot was removed, filtered through a 0.22 μm filter and analyzed on a UV/VIS spectrophotometer at 227 nm. Absorbance values of the samples were compared to those of standard solutions prepared in dissolution media to determine the amount of material dissolved. […] At 5, 15, 30, 60, 120 and 225 minutes, a 5 mL aliquot was removed, filtered through a 0.22 μm filter, and analyzed on a UV/VIS spectrophotometer at 232 nm. Absorbance values of the samples were compared to those of standard solutions prepared in dissolution media to determine the amount of material dissolved.
At 5, 15, 30, 60, 120 and 225 minutes, a 5 mL aliquot was removed, filtered through a 0.22 μm filter, and analyzed on a UV/VIS spectrophotometer at 232 nm. Absorbance values of the samples were compared to those of standard solutions prepared in dissolution media to determine the amount of material dissolved.

[10] = IV Docetaxel 3 cycles, individual animals
[11] = IV Docetaxel 3 cycles, 2 animals

## CC(=O)O[C@H]1C(=O)[C@@]2(C)[C@H]([C@H](OC(=O)c3ccccc3)[C@]3(O)C[C@H](OC(=O)[C@H](O)[C@@H](NC(=O)c4ccccc4)c4ccccc4)C(C)=C1C3(C)C)[C@]1(OC(C)=O)CO[C@@H]1C[C@@H]2O [Paclitaxel Raw Material, paclitaxel]
[1]
  Dissolution (30 min): 18%
[2]
  Surface Area: 10.4 m^2/g
[3]
  Number Mean: 1.16 um

## docetaxel
[4]; Docetaxel solution 30 mg/kg IV, 3 weekly cycles, to Day 61 post implant
  tumor volume: subsequently increased; also recorded: somewhat effective at treating small tumors, but not very effective in treating large tumors
[4]; [10]
  Necropsy volume: 2872 mm^3 and 1652 mm^3
[5]
  tumors with docetaxel levels above the limit of quantitation (1 ng/g): 1
[6]; Docetaxel solution IV 3 cycles
  general histological observations (H&E): many viable appearing tumor masses with some macrophage and occasional lymphocytic response along with some tumor necrosis
[6]; [11]
  Maximum size of viable invasive carcinoma on the slide >10 mm, number of animals: 2*
  Percentage of tumor showing necrosis 11-50%, number of animals: 1
  Percentage of tumor showing necrosis 50-90%, number of animals: 1
[6]; IV Docetaxel 3 cycles, 2 animals, H&E and CD68
  Macrophage infiltrate density Mild, number of animals: 2
[6]; [10]
  Maximum tumor size on slide: 11 mm and 15 mm
[7]
  initial animal weight loss: generally greater
  signs of peripheral neuropathy: greater signs of peripheral neuropathy

## CC(=O)O[C@H]1C(=O)[C@@]2(C)[C@H]([C@H](OC(=O)c3ccccc3)[C@]3(O)C[C@H](OC(=O)[C@H](O)[C@@H](NC(=O)c4ccccc4)c4ccccc4)C(C)=C1C3(C)C)[C@]1(OC(C)=O)CO[C@@H]1C[C@@H]2O [paclitaxel]
[8]
  solubility in the Receptor Fluid: sufficient to maintain sink conditions

## CC(=O)O[C@@]12CO[C@@H]1C[C@H](O)[C@@]1(C)C(=O)[C@H](O)C3=C(C)[C@@H](OC(=O)[C@H](O)[C@@H](NC(=O)OC(C)(C)C)c4ccccc4)C[C@@](O)([C@@H](OC(=O)c4ccccc4)[C@H]21)C3(C)C [Docetaxel Raw Material, docetaxel]
[9]
  Dissolution (30 min): 11%

Source: patent US20190209515A1, “Treatment of Bladder Cancer by Intratumoral Injection of Taxane Particles” (CRITITECH, INC., priority 2018, published 2019)
